Values quoted from earlier work in patent US20130040915A1, “PHARMACEUTICAL COMPOSITION” (CAPITAL, BUSINESS Y GESTION DE FINANZAS, S.L., priority 2010, published 2013).

Legend:
[1] = not given; remark: listed apart in the source
[2] = system: adipose tissue cell membranes; conditions: concentrations of 1%
[3] = high concentrations, of the order of 4.8 mg/ml
[4] = system: tumor-induced hypercalcaemia; conditions: subcutaneous infusion

## O=P(O)(O)C(O)(Cn1ccnc1)P(=O)(O)O [Zoledronic acid]
other
  chemical stability in autoclave sterilization condition: chemically very stable

## C[C@H](CCC(=O)NCCS(=O)(=O)O)[C@H]1CC[C@H]2[C@@H]3[C@H](O)C[C@@H]4C[C@H](O)CC[C@]4(C)[C@H]3C[C@H](O)[C@]12C [sodium taurocholate]
[1]
  pKa: 1.4

## sodium deoxycholate
[2]
  effect on adipose tissue cell membranes: non-specific rupture of adipose tissue cell membranes
[1]
  pKa: 6.58
[1]; pH 7.4 of the skin
  solubility: sparingly soluble

## O=C([O-])CC(O)(CC(=O)[O-])C(=O)[O-].[Na+].[Na+].[Na+] [sodium citrate]
[3]
  pain after a subcutaneous injection compared with a solution with histidine: more pain

## O=P(O)(O)C(Cl)(Cl)P(=O)(O)O [clodronate]
[4]; 1500 mg in 50 to 1000 ml, 2 to 24 hours
  tolerability: well tolerated
[4]; 149 patients, 254 infusions
  control of tumor-induced hypercalcaemia (lowering the level of calcium): effective
